Measured values as given in US10689377B2 (Mirati Therapeutics, Inc., priority 2017, dated 2020).
pIC50: −log10 of the molar value.

Biological target: KRas G12C (Homo sapiens, UniProt P01116, G12C)
Test: Cellular inhibition of KRas G12C measured by Phospho-ERK in NCI-H358 cells
Assay type: cell-based
Conditions: pERK(Thr202/Tyr204) normalized with GAPDH, NCI-H358 cells, 3 hours; read-out: IC50
Outline: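 Ratio of phospho-ERK(Thr202/Tyr204) to GAPDH, read by near-infrared secondary antibodies on fixed, permeabilised NCI-H358 cells, expressed relative to DMSO control. Compound exposure was 3 h at 0.5% DMSO. IC50 values come from 4-parameter curve fits.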

Chain of KRas G12C (P01116 1-188 isoform P01116-2 G12C): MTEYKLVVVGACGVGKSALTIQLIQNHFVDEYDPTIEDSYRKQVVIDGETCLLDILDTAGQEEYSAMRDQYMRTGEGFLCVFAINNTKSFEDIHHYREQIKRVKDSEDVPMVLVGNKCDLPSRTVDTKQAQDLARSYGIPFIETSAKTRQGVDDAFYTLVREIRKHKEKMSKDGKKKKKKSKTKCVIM

`C=CC(=O)N1CCN(c2nc(OCC3CCN(C)C3)nc3c2CCN(c2cc(O)cc4ccccc24)C3)CC1` (stereo not shown) [Example 89, 1-(4-(7-(3-hydroxynaphthalen-1-yl)-2-((1-methylpyrrolidin-3-yl)methoxy)-5,6,7,8-tetrahydropyrido[3,4-d]pyrimidin-4-yl)piperazin-1-yl)prop-2-en-1-one] and `C=CC(=O)N1CCN(c2nc(OC[C@@H]3CCN(C)C3)nc3c2CCN(c2cc(O)cc4ccccc24)C3)CC1` [Example 110, (R)-1-(4-(7-(3-hydroxynaphthalen-1-yl)-2-((1-methylpyrrolidin-3-yl)methoxy)-5,6,7,8-tetrahydropyrido[3,4-d]pyrimidin-4-yl)piperazin-1-yl)prop-2-en-1-one] fall in the same range of pIC50: 6.00 to 10.00 for the first, 6.00 to 10.00 for the second.

First: C=CC(=O)N1CCN(c2nc(OCCCN3CCOCC3)nc3c2CCN(c2cc(O)ccc2OC(F)(F)F)C3)CC1 [Example 90, 1-(4-(7-(5-hydroxy-2-(trifluoromethoxy)phenyl)-2-(3-morpholinopropoxy)-5,6,7,8-tetrahydropyrido[3,4-d]pyrimidin-4-yl)piperazin-1-yl)prop-2-en-1-one]
Second: C=CC(=O)N1CCN(c2nc(OCCCN3CCOCC3)nc3c2CCN(c2ccc(O)cc2OC(F)(F)F)C3)CC1 [Example 106, 1-(4-(7-(4-hydroxy-2-(trifluoromethoxy)phenyl)-2-(3-morpholinopropoxy)-5,6,7,8-tetrahydropyrido[3,4-d]pyrimidin-4-yl)piperazin-1-yl)prop-2-en-1-one]
The pIC50 of the first is higher: 6.00 to 10.00 for the first, under 6.00 for the second. The first is the more potent here.

`C=CC(=O)N1CCN(c2nc(O[C@H](C)CN(C)C)nc3c2CCN(c2cc(O)cc(OC(F)(F)F)c2)C3)CC1` [Example 91, (R)-1-(4-(2-((1-(dimethylamino)propan-2-yl)oxy)-7-(3-hydroxy-5-(trifluoromethoxy)phenyl)-5,6,7,8-tetrahydropyrido[3,4-d]pyrimidin-4-yl)piperazin-1-yl)prop-2-en-1-one] and `C=CC(=O)N1CCN(c2nc(O[C@H](C)CN(C)C)nc3c2CCN(c2cc(O)ccc2OC)C3)CC1` [Example 94, (R)-1-(4-(2-((1-(dimethylamino)propan-2-yl)oxy)-7-(5-hydroxy-2-methoxyphenyl)-5,6,7,8-tetrahydropyrido[3,4-d]pyrimidin-4-yl)piperazin-1-yl)prop-2-en-1-one] cannot be ordered by pIC50: under 6.00 for the first, under 6.00 for the second.

`C=CC(=O)N1CCN(c2nc(OCCN3CCC(C)CC3)nc3c2CCN(c2cc(O)cc4ccccc24)C3)CC1` [Example 92, 1-(4-(7-(3-hydroxynaphthalen-1-yl)-2-(2-(4-methylpiperidin-1-yl)ethoxy)-5,6,7,8-tetrahydropyrido[3,4-d]pyrimidin-4-yl)piperazin-1-yl)prop-2-en-1-one] and `C=CC(=O)N1CCN(c2nc(OCCN3CCC(OC)CC3)nc3c2CCN(c2cc(O)cc4ccccc24)C3)CC1` [Example 108, 1-(4-(7-(3-hydroxynaphthalen-1-yl)-2-(2-(4-methoxypiperidin-1-yl)ethoxy)-5,6,7,8-tetrahydropyrido[3,4-d]pyrimidin-4-yl)piperazin-1-yl)prop-2-en-1-one] fall in the same range of pIC50: 6.00 to 10.00 for the first, 6.00 to 10.00 for the second.

Compared with `C=CC(=O)N1CCN(c2nc(OC(C)CCN3CCOCC3)nc3c2CCN(c2cc(O)cc4ccccc24)C3)CC1` (stereo not shown) [Example 93, 1-(4-(7-(3-hydroxynaphthalen-1-yl)-2-((4-morpholinobutan-2-yl)oxy)-5,6,7,8-tetrahydropyrido[3,4-d]pyrimidin-4-yl)piperazin-1-yl)prop-2-en-1-one], `C=CC(=O)N1CCN(c2nc(OCCCN3CCCOCC3)nc3c2CCN(c2cc(O)cc4ccccc24)C3)CC1` [Example 101, 1-(4-(2-(3-(1,4-oxazepan-4-yl)propoxy)-7-(3-hydroxynaphthalen-1-yl)-5,6,7,8-tetrahydropyrido[3,4-d]pyrimidin-4-yl)piperazin-1-yl)prop-2-en-1-one] is higher in pIC50: under 6.00 for the first, 6.00 to 10.00 for the second.

First: C=CC(=O)N1CCN(c2nc(O[C@H](C)CN(C)C)nc3c2CCN(c2c(C)cccc2O)C3)CC1 [Example 95, (R)-1-(4-(2-((1-(dimethylamino)propan-2-yl)oxy)-7-(2-hydroxy-6-methylphenyl)-5,6,7,8-tetrahydropyrido[3,4-d]pyrimidin-4-yl)piperazin-1-yl)prop-2-en-1-one]
Second: C=CC(=O)N1CCN(c2nc(O[C@H](C)CN(C)C)nc3c2CCN(c2cc(O)cc4ccccc24)C3)[C@@H](C)C1 [Example 115, 1-((S)-4-(2-(((R)-1-(dimethylamino)propan-2-yl)oxy)-7-(3-hydroxynaphthalen-1-yl)-5,6,7,8-tetrahydropyrido[3,4-d]pyrimidin-4-yl)-3-methylpiperazin-1-yl)prop-2-en-1-one]
The pIC50 of the first is lower: under 6.00 for the first, 6.00 to 10.00 for the second.

`C=CC(=O)N1CCN(c2nc(OCCCN3CCOCC3)nc3c2CCN(c2cc(O)ccc2OC(C)C)C3)CC1` [Example 96, 1-(4-(7-(5-hydroxy-2-isopropoxyphenyl)-2-(3-morpholinopropoxy)-5,6,7,8-tetrahydropyrido[3,4-d]pyrimidin-4-yl)piperazin-1-yl)prop-2-en-1-one] and `C=CC(=O)N1CCN(c2nc(OCCCN3CCOCC3)nc3c2CCN(c2cc(O)ccc2C)C3)CC1` [Example 105, 1-(4-(7-(5-hydroxy-2-methylphenyl)-2-(3-morpholinopropoxy)-5,6,7,8-tetrahydropyrido[3,4-d]pyrimidin-4-yl)piperazin-1-yl)prop-2-en-1-one] cannot be ordered by pIC50: under 6.00 for the first, under 6.00 for the second.

`C=CC(=O)N1CCN(c2nc(OCCN3CCCC[C@H]3C)nc3c2CCN(c2cc(O)cc4ccccc24)C3)CC1` [Example 97, (R)-1-(4-(7-(3-hydroxynaphthalen-1-yl)-2-(2-(2-methylpiperidin-1-yl)ethoxy)-5,6,7,8-tetrahydropyrido[3,4-d]pyrimidin-4-yl)piperazin-1-yl)prop-2-en-1-one] and `C=CC(=O)N1CCN(c2nc(OCCN3CCC[C@H](F)C3)nc3c2CCN(c2cc(O)cc4ccccc24)C3)CC1` [Example 111, (S)-1-(4-(2-(2-(3-fluoropiperidin-1-yl)ethoxy)-7-(3-hydroxynaphthalen-1-yl)-5,6,7,8-tetrahydropyrido[3,4-d]pyrimidin-4-yl)piperazin-1-yl)prop-2-en-1-one] fall in the same range of pIC50: 6.00 to 10.00 for the first, 6.00 to 10.00 for the second.

`C=CC(=O)N1CCN(c2nc(OCCN3CCC[C@H](OC)C3)nc3c2CCN(c2cc(O)cc4ccccc24)C3)CC1` [Example 98, (S)-1-(4-(7-(3-hydroxynaphthalen-1-yl)-2-(2-(3-methoxypiperidin-1-yl)ethoxy)-5,6,7,8-tetrahydropyrido[3,4-d]pyrimidin-4-yl)piperazin-1-yl)prop-2-en-1-one] and `C=CC(=O)N1CCN(c2nc(OCCN3CCC[C@@H](OC)C3)nc3c2CCN(c2cc(O)cc4ccccc24)C3)CC1` [Example 99, (R)-1-(4-(7-(3-hydroxynaphthalen-1-yl)-2-(2-(3-methoxypiperidin-1-yl)ethoxy)-5,6,7,8-tetrahydropyrido[3,4-d]pyrimidin-4-yl)piperazin-1-yl)prop-2-en-1-one] cannot be ordered by pIC50: under 6.00 for the first, under 6.00 for the second.

`C=CC(=O)N1CCN(c2nc(OC3CCN(C4CC4)CC3)nc3c2CCN(c2cc(O)cc4ccccc24)C3)CC1` [Example 100, 1-(4-(2-((1-cyclopropylpiperidin-4-yl)oxy)-7-(3-hydroxynaphthalen-1-yl)-5,6,7,8-tetrahydropyrido[3,4-d]pyrimidin-4-yl)piperazin-1-yl)prop-2-en-1-one] and `C=CC(=O)N1CCN(c2nc(OCCN3CCC(F)(F)CC3)nc3c2CCN(c2cc(O)cc4ccccc24)C3)CC1` [Example 109] cannot be ordered by pIC50: under 6.00 for the first, under 6.00 for the second.

First: C=CC(=O)N1CCN(c2nc(OCCN(CC)CC)nc3c2CCN(c2cc(O)cc4ccccc24)C3)CC1 [Example 102]
Second: C=CC(=O)N1CCN(c2nc(OCCN(C)CCOC)nc3c2CCN(c2cc(O)cc4ccccc24)C3)CC1 [Example 107, 1-(4-(7-(3-hydroxynaphthalen-1-yl)-2-(2-((2-methoxyethyl)(methyl)amino)ethoxy)-5,6,7,8-tetrahydropyrido[3,4-d]pyrimidin-4-yl)piperazin-1-yl)prop-2-en-1-one]
The pIC50 of the first is higher: 6.00 to 10.00 for the first, under 6.00 for the second.

`C=CC(=O)N1CCN(c2nc(OCC3CCN(CCOC)C3)nc3c2CCN(c2cc(O)cc4ccccc24)C3)CC1` (stereo not shown) [Example 103, 1-(4-(7-(3-hydroxynaphthalen-1-yl)-2-((1-(2-methoxyethyl)pyrrolidin-3-yl)methoxy)-5,6,7,8-tetrahydropyrido[3,4-d]pyrimidin-4-yl)piperazin-1-yl)prop-2-en-1-one] and `C=CC(=O)N1CCN(c2nc(OCCCN3C[C@@H]4C[C@H]3CO4)nc3c2CCN(c2cc(O)cc4ccccc24)C3)CC1` [Example 104, 1-(4-(2-(3-((1S,4S)-2-oxa-5-azabicyclo[2.2.1]heptan-5-yl)propoxy)-7-(3-hydroxynaphthalen-1-yl)-5,6,7,8-tetrahydropyrido[3,4-d]pyrimidin-4-yl)piperazin-1-yl)prop-2-en-1-one] fall in the same range of pIC50: 6.00 to 10.00 for the first, 6.00 to 10.00 for the second.

First: C=CC(=O)N1CCN(c2nc(OCCCN3CCOCC3)nc3c2CCN(c2cc(C(F)F)cc4ccccc24)C3)CC1 [Example 112, 1-(4-(7-(3-(difluoromethyl)naphthalen-1-yl)-2-(3-morpholinopropoxy)-5,6,7,8-tetrahydropyrido[3,4-d]pyrimidin-4-yl)piperazin-1-yl)prop-2-en-1-one]
Second: C=CC(=O)N1CCN(c2nc(OCCN(C)C)nc3c2CCN(c2cc(O)cc4ccccc24)C3)[C@@H](C)C1 [Example 116, (S)-1-(4-(2-(2-(dimethylamino)ethoxy)-7-(3-hydroxynaphthalen-1-yl)-5,6,7,8-tetrahydropyrido[3,4-d]pyrimidin-4-yl)-3-methylpiperazin-1-yl)prop-2-en-1-one]
The pIC50 of the first is lower: under 6.00 for the first, 6.00 to 10.00 for the second. The second is the more potent here.

`C=CC(=O)N1CCN(c2ncnc3c2CC(=O)N(c2cc(O)cc4ccccc24)C3)CC1` [Example 113, 4-(4-acryloylpiperazin-1-yl)-7-(3-hydroxynaphthalen-1-yl)-7,8-dihydropyrido[3,4-d]pyrimidin-6(5H)-one] and `C=CC(=O)N1CC2(C1)CN(c1ncnc3c1CC(=O)N(c1cc(O)cc4ccccc14)C3)C2` [Example 114, 4-(6-acryloyl-2,6-diazaspiro[3.3]heptan-2-yl)-7-(3-hydroxynaphthalen-1-yl)-7,8-dihydropyrido[3,4-d]pyrimidin-6(5H)-one] cannot be ordered by pIC50: under 6.00 for the first, under 6.00 for the second.
